Tested on: B16F0 melanoma tumour
Assay: Biodistribution in B16 melanoma bearing mice
Type: in vivo, C57BL/6J mice
Conditions: C57BL/6J mice; for Organ distribution Intestine / Organ distribution Liver / Organ distribution Spleen / Organ distribution Stomach / Organ distribution Thyroid / Organ distribution Tumour: B16F0 tumour, mean ± S.D.; for Organ distribution Intestine / Organ distribution Liver / Organ distribution Spleen / Organ distribution Stomach / Organ distribution Thyroid / Organ distribution Tumour / Uptake Lung / uptake BLOOD / uptake BRAIN / uptake HEART / uptake KIDNEY / uptake LIVER / uptake TUMOUR: n = 5; for tumour standardized uptake value (SUVt) / Uptake Lung / uptake BLOOD / uptake BRAIN / uptake HEART / uptake KIDNEY / uptake LIVER / uptake TUMOUR: B16 tumour; for Uptake Lung / uptake BLOOD / uptake BRAIN / uptake HEART / uptake KIDNEY / uptake LIVER / uptake TUMOUR: mean ± SD
Experimental: Animal experiments were performed in compliance with the NHMRC Australian Code of Practice for the care and use of animals for scientific purposes. Female C57BL/6J black and BALB/c nude albino mice of 5 weeks age were obtained from the Animal Resources Centre, Western Australia. B16F0 murine melanoma cells were originally obtained from European Collection of Cell Cultures (UK) and A375 human amelanotic melanoma cells were originally obtained from American Type Culture Collection (USA). Before transplantation, B16F0 and A375 melanoma cells were maintained as a monolayer in RPMI culture medium supplemented with 10% foetal calf serum and antibiotics and passaged with trypsinisation. Early passages were frozen and stored in liquid nitrogen. Cells were passaged to P=10 and then discarded. Frozen aliquots were grown in a monolayer culture to between 80-95% confluence and for transplantation were trypsinised and washed with Ca^2+ and Mg^2+ free phosphate buffered saline (PBS). For inoculation, B16F0 melanoma cells were resuspended in Ca^2+ and Mg^2+ free PBS at 3 or 5×10^6 viable cells per ml and 0.1 ml was subcutaneously injected at the left flank of 6-7 weeks old C57BL/6J mice. Eleven days later, tumours could be palpated in >98% of inoculated animals. A375 human melanoma cells were resuspended at 1×10^7 viablecells per ml and 0.1 ml was injected subcutaneously at the left flank of 6 weeks old BALB/c nude mice and 25-26 days later tumours could be palpated with ˜60% of inoculated animals developing tumours.
Eleven days (B16F0 melanoma) and 25 days (A375 human melanoma) after tumour transplantation, the [^18F]nicotinamides (0.5-1.5 MBq, 100 μl) and [^123I]nicotinamide (0.37-0.74 MBq, 100 μl) derivatives were injected intravenously via the tail vein into mice (15-18 g). Time points of 1, 3, 6, 24, 48, 72 h after injection were chosen for determining the distribution of each compound in various organs and tissues for the iodine-123 labelled compounds and between 15 min and 6 hours (e.g. 15 min, 30 min, 1 h, 2 h, 4 h or 6 h) were chosen for the ^18F-labelled compounds. At defined times post injection, groups of mice (n=5) were weighed, sacrificed by CO2 administration followed by cervical dislocation and dissected. Selected organs were weighed and their radioactivity measured with a γ-counter. The remaining activity in the carcass was also determined in order to obtain the total activity in the mouse at defined time points. The fraction of injected activity (% ID) in the organ was calculated by comparison with suitable dilutions of the injected dose. Then, the radioactivity concentration in the organ (% ID/g) was found by dividing the % ID for each organ by the weight of the organ.

## CCN(CC)CCNC(=O)c1cncc(I)c1 [[^123I]11, N-(2-(diethylamino)ethyl)-5-iodonicotinamide]
1 h
  Organ distribution Intestine: 15 ± 2 % ID/organ
  Organ distribution Liver: 1.8 ± 0.3 % ID/organ
  Organ distribution Spleen: 0.16 ± 0.16 % ID/organ
  Organ distribution Stomach: 2.0 ± 0.2 % ID/organ
  Organ distribution Thyroid: 0.37 ± 0.07 % ID/organ
  Organ distribution Tumour: 1.3 ± 0.3 % ID/organ
  tumour standardized uptake value (SUVt): 3.7 ± 1.0
  Uptake Lung: 1.4 ± 0.2 % ID/g
  uptake BLOOD: 1.21 ± 0.17 % ID/g
  uptake BRAIN: 0.14 ± 0.02 % ID/g
  uptake HEART: 0.8 ± 0.1 % ID/g
  uptake KIDNEY: 1.8 ± 0.5 % ID/g
  uptake LIVER: 1.9 ± 0.3 % ID/g
  uptake TUMOUR: 7.8 ± 1.7 % ID/g
3 h
  Organ distribution Intestine: 5 ± 2 % ID/organ
  Organ distribution Liver: 0.82 ± 0.08 % ID/organ
  Organ distribution Spleen: 0.06 ± 0.05 % ID/organ
  Organ distribution Stomach: 1.3 ± 0.3 % ID/organ
  Organ distribution Thyroid: 1.1 ± 0.3 % ID/organ
  Organ distribution Tumour: 1.0 ± 0.4 % ID/organ
  tumour standardized uptake value (SUVt): 7.4 ± 1.6
  Uptake Lung: 0.75 ± 0.07 % ID/g
  uptake BLOOD: 0.92 ± 0.09 % ID/g
  uptake BRAIN: 0.07 ± 0.01 % ID/g
  uptake HEART: 0.4 ± 0.04 % ID/g
  uptake KIDNEY: 0.8 ± 0.1 % ID/g
  uptake LIVER: 0.9 ± 0.1 % ID/g
  uptake TUMOUR: 6.0 ± 0.4 % ID/g
6 h
  Organ distribution Intestine: 2.8 ± 0.4 % ID/organ
  Organ distribution Spleen: 0.05 ± 0.04 % ID/organ
  Organ distribution Stomach: 1.2 ± 0.2 % ID/organ
  Organ distribution Thyroid: 1.8 ± 1.0 % ID/organ
  Organ distribution Tumour: 1.1 ± 0.3 % ID/organ
  tumour standardized uptake value (SUVt): 12 ± 1
  Uptake Lung: 0.47 ± 0.11 % ID/g
  uptake BLOOD: 0.58 ± 0.14 % ID/g
  uptake BRAIN: 0.04 ± 0.01 % ID/g
  uptake HEART: 0.26 ± 0.06 % ID/g
  uptake KIDNEY: 0.5 ± 0.1 % ID/g
  uptake LIVER: 0.6 ± 0.1 % ID/g
  uptake TUMOUR: 5.9 ± 0.7 % ID/g
24 h
  Organ distribution Intestine: 0.10 ± 0.02 % ID/organ
  Organ distribution Liver: 0.12 ± 0.01 % ID/organ
  Organ distribution Spleen: 0.01 ± 0.03 % ID/organ
  Organ distribution Stomach: 0.04 ± 0.01 % ID/organ
  Organ distribution Thyroid: 1.0 ± 0.3 % ID/organ
  Organ distribution Tumour: 0.7 ± 0.1 % ID/organ
  tumour standardized uptake value (SUVt): 37 ± 9
  Uptake Lung: 0.03 ± 0.02 % ID/g
  uptake BLOOD: 0.03 ± 0.01 % ID/g
  uptake BRAIN: 0.01 % ID/g
  uptake HEART: 0.04 ± 0.01 % ID/g
  uptake KIDNEY: 0.03 ± 0.01 % ID/g
  uptake LIVER: 0.12 ± 0.02 % ID/g
  uptake TUMOUR: 3.2 ± 0.9 % ID/g
48 h
  Organ distribution Intestine: 0.06 ± 0.01 % ID/organ
  Organ distribution Liver: 0.06 ± 0.01 % ID/organ
  Organ distribution Spleen: 0.00 ± 0.00 % ID/organ
  Organ distribution Stomach: 0.02 ± 0.01 % ID/organ
  Organ distribution Thyroid: 1.4 ± 0.3 % ID/organ
  Organ distribution Tumour: 0.7 ± 0.4 % ID/organ
  tumour standardized uptake value (SUVt): 22 ± 5
  Uptake Lung: 0.04 ± 0.01 % ID/g
  uptake BRAIN: 0.01 % ID/g
  uptake HEART: 0.03 ± 0.01 % ID/g
  uptake KIDNEY: 0.03 ± 0.01 % ID/g
  uptake LIVER: 0.08 ± 0.02 % ID/g
  uptake TUMOUR: 2.2 ± 0.4 % ID/g
72 h
  Organ distribution Intestine: 0.04 ± 0.01 % ID/organ
  Organ distribution Liver: 0.04 ± 0.01 % ID/organ
  Organ distribution Spleen: 0.01 ± 0.01 % ID/organ
  Organ distribution Stomach: 0.01 ± 0.01 % ID/organ
  Organ distribution Thyroid: 1.0 ± 0.6 % ID/organ
  Organ distribution Tumour: 0.3 ± 0.1 % ID/organ
  tumour standardized uptake value (SUVt): 18 ± 12
  Uptake Lung: 0.04 ± 0.04 % ID/g
  uptake BLOOD: 0.02 ± 0.01 % ID/g
  uptake BRAIN: 0.01 % ID/g
  uptake HEART: 0.06 ± 0.02 % ID/g
  uptake KIDNEY: 0.02 ± 0.02 % ID/g
  uptake LIVER: 0.04 ± 0.01 % ID/g
  uptake TUMOUR: 1.4 ± 0.3 % ID/g
